# Laboratory results as given in US20160115540A1, “PRODRUGS AND DRUGS” (Biogen MA Inc., priority 2013, published 2016).
# Where a name gives a salt, the structure may show the parent alone.
# What was measured:
# [1] = tested on: striatum; test: Transcriptional profiling on Affymetrix GeneChips, single dose, naïve mice: striatum; assay type: in vivo, C57BL/6 mice; conditions: for Number of differentially expressed genes identified: Striatum: Naïve, Single Dose, 100 mpk, vs Vehicle
# Procedure: (§1) Treated mice were sacrificed at 2, 7, or 12 hours. Tissues (liver, spleen, kidney, jejunum, cortex, hippocampus, striatum and whole blood) were collected and analyzed by transcriptional profiling on mouse Affymetrix GeneChips.
# (§2) Tissues (liver, spleen, kidney, jejunum, cortex, hippocampus, striatum and whole blood) were collected and analyzed by transcriptional profiling on mouse Affymetrix GeneChips.
# (§3) Animals were exposed to CO2 and whole blood collected via cardiac puncture. Two 100 μl aliquots of whole blood were collected in 1.5 mL microcentrifuge tubes and snap frozen in liquid nitrogen. Peripheral (liver, spleen, kidney and jejunum) and CNS brain (cerebellum, hippocampus, striatum and cortex) tissues were harvested and snap frozen in liquid nitrogen, with special care taken to collect tissues of similar size and from the same location. All samples were stored at −80° C. until RNA extraction was conducted.
# (§4) For RNA preparation, frozen tissues were placed in 2 mL RNAse-free 96-well blocks with 1.5 mL QIAzol Lysis Reagent (QIAgen) and a 3.2 mm stainless steel bead (BioSpec Products, Bartlesville, Okla.). Tissues were disrupted for four cycles of 45 seconds in a Mini-Beadbeater (Biospec Products). RNA was extracted in chloroform and the aqueous phase was mixed with an equal volume of 70% ethanol. Extracted RNA was applied to RNeasy 96 plates and purified by the spin method according to the manufacturer's protocol (RNeasy 96 Universal Tissue Protocol, QIAgen, Hilden Germany).
# (§5) Automated sample amplifications and biotin labelings were carried out using the NuGEN Ovation RNA Amplification system V2 (Cat #3100), Ovation WB reagent (Cat #1300) and Encore Biotin module (Cat #4200) (NuGEN Technologies, Inc, San Carlos, Calif.) according to manufacturer's recommendations using an Arrayplex automated liquid handler (Beckman Coulter, Indianapolis, Ind.). Two micrograms of biotin labeled sscDNA probe were hybridized to Affymetrix GeneChip Affymetrix HT_MG-430_PM plate arrays with modified conditions as described in Allaire et al. Washing and staining of the hybridized arrays were completed as described in the GeneChip Expression analysis technical manual for HT plate arrays using the Genechip® Array Station (Affymetrix, Santa Clara, Calif.) with modifications as described in Allaire et al. The processed GeneChip® plate arrays were scanned using GeneTitan scanner (Affymetrix, Santa Clara, Calif.).
# (§6) Affymetrix scans were subject to quality control (QC) measures. These tests included a visual inspection of the distribution of raw signal intensities and an assessment of RNA degradation, relative log expression (RLE), and normalized unsealed standard error (NUSE). All sample scans that passed these QC metrics were included in the analysis.
# (§7) All CEL files were subjected to GC-content-based Robust Multi-array Average (GCRMA) normalization (version 2.20.0) (Irizarry R A, et al. Nucleic Acids Res 2003; 31:e15; Li C, et al. Genome Biol 2001; 2:[…]0032). Expression levels were log (base 2) transformed.
# (§8) All calculations and analyses were carried out using R (version 2.11.1) and Bioconductor computational tools (Gentleman R. Springer Science+Business Media 2005).
# [2] = tested on: spleen; test: Transcriptional profiling on Affymetrix GeneChips, single dose, naïve mice: spleen; assay type: in vivo, C57BL/6 mice; conditions: for Number of differentially expressed genes identified: Spleen: Naïve, Single Dose, 100 mpk, vs Vehicle
# Procedure: as §1, §2, §3, §4, §5, §6, §7, §8
# [3] = striatum, 2 hr after single 100 mg/kg oral dose
# [4] = striatum, 12 hr after single 100 mg/kg oral dose
compound,measurement,setting,value
"COC(=O)/C=C/C(=O)O [MMF, monomethyl fumarate]",Number of differentially expressed genes identified: Striatum,[1]; 2 h after last dosing,6
same,Number of differentially expressed genes identified: Striatum,[1]; 7 h after last dosing,1
same,Number of differentially expressed genes identified: Striatum,[1]; 12 h after last dosing,7
same,"Number of genes, DMF Only / MMF Only",[1]; Striatum,12
same,Gna13 (1422556_PM_at) differential expression,"[1]; Striatum, 2 hr",−1.63
same,Golga3 (1449616_PM_s_at) differential expression,"[1]; Striatum, 2 hr",−1.63
same,Grin2a (1421616_PM_at) differential expression,"[1]; Striatum, 2 hr",−1.78
same,Kdm3b (1428320_PM_at) differential expression,"[1]; Striatum, 2 hr",−1.56
same,Lrrc41 (1427125_PM_s_at) differential expression,"[1]; Striatum, 2 hr",−1.54
same,Top2b (1448458_PM_at) differential expression,"[1]; Striatum, 2 hr",−1.56
same,Aox1 (1419435_PM_at) differential expression,"[1]; Striatum, 7 hr",1.95
same,Adamts9 (1437785_PM_at) differential expression,"[1]; Striatum, 12 hr",−2.58
same,Galnt12 (1437760_PM_at) differential expression,"[1]; Striatum, 12 hr",1.50
same,Hrh3 (1448807_PM_at) differential expression,"[1]; Striatum, 12 hr",1.59
same,Itpkb (1435272_PM_at) differential expression,"[1]; Striatum, 12 hr",−1.56
same,Pvrl3 (1457257_PM_x_at) differential expression,"[1]; Striatum, 12 hr",−1.80
same,St18 (1455123_PM_at) differential expression,"[1]; Striatum, 12 hr",−1.69
same,Tmprss6 (1428676_PM_at) differential expression,"[1]; Striatum, 12 hr",1.68
same,FC Golga3 (1449616_PM_s_at),"[1]; striatum, 100MMF-vs-Veh, 2 h",−1.63
same,FC Grin2a (1421616_PM_at),"[1]; striatum, 100MMF-vs-Veh, 2 h",−1.78
same,FC Kdm3b (1428320_PM_at),"[1]; striatum, 100MMF-vs-Veh, 2 h",−1.56
same,FC Lrrc41 (1427125_PM_s_at),"[1]; striatum, 100MMF-vs-Veh, 2 h",−1.54
same,FC Top2b (1448458_PM_at),"[1]; striatum, 100MMF-vs-Veh, 2 h",−1.56
same,FC probe 1442867_PM_at,"[1]; striatum, 100MMF-vs-Veh, 2 h",−1.57
same,FC Aox1 (1419435_PM_at),"[1]; striatum, 100MMF-vs-Veh, 7 h",1.95
same,FC Adamts9 (1437785_PM_at),"[1]; striatum, 100MMF-vs-Veh, 12 h",−2.58
same,FC Galnt12 (1437760_PM_at),"[1]; striatum, 100MMF-vs-Veh, 12 h",1.50
same,FC Hrh3 (1448807_PM_at),"[1]; striatum, 100MMF-vs-Veh, 12 h",1.59
same,FC Itpkb (1435272_PM_at),"[1]; striatum, 100MMF-vs-Veh, 12 h",−1.56
same,FC Pvrl3 (1457257_PM_x_at),"[1]; striatum, 100MMF-vs-Veh, 12 h",−1.80
same,FC St18 (1455123_PM_at),"[1]; striatum, 100MMF-vs-Veh, 12 h",−1.69
same,FC Tmprss6 (1428676_PM_at),"[1]; striatum, 100MMF-vs-Veh, 12 h",1.68
same,Gna13 mRNA fold change vs vehicle,[1]; [3],−1.63
same,Golga3 mRNA fold change vs vehicle,[1]; [3],−1.63
same,Grin2a mRNA fold change vs vehicle,[1]; [3],−1.78
same,Kdm3b mRNA fold change vs vehicle,[1]; [3],−1.56
same,Lrrc41 mRNA fold change vs vehicle,[1]; [3],−1.54
same,Top2b mRNA fold change vs vehicle,[1]; [3],−1.56
same,Aox1 mRNA fold change vs vehicle,"[1]; striatum, 7 hr after single 100 mg/kg oral dose",1.95
same,Adamts9 mRNA fold change vs vehicle,[1]; [4],−2.58
same,Galnt12 mRNA fold change vs vehicle,[1]; [4],1.50
same,Hrh3 mRNA fold change vs vehicle,[1]; [4],1.59
same,Itpkb mRNA fold change vs vehicle,[1]; [4],−1.56
same,Pvrl3 mRNA fold change vs vehicle,[1]; [4],−1.80
same,St18 mRNA fold change vs vehicle,[1]; [4],−1.69
same,Tmprss6 mRNA fold change vs vehicle,[1]; [4],1.68
same,Number of differentially expressed genes identified: Spleen,[2]; 2 h after last dosing,12
same,Number of differentially expressed genes identified: Spleen,[2]; 7 h after last dosing,2
same,Number of differentially expressed genes identified: Spleen,[2]; 12 h after last dosing,0
same,FC Pdia4 (protein disulfide isomerase associated 4),"[2]; SPLEEN, 100MMF-vs-Veh, 2 h, probe 1416497_PM_at",−1.59
same,FC Aox1 (aldehyde oxidase 1),"[2]; SPLEEN, 100MMF-vs-Veh, 2 h, probe 1419435_PM_at",2.35
same,FC Srxn1 (sulfiredoxin 1 homolog (S. cerevisiae)),"[2]; SPLEEN, 100MMF-vs-Veh, 2 h, probe 1419942_PM_at",2.02
same,FC Txnrd1 (thioredoxin reductase 1),"[2]; SPLEEN, 100MMF-vs-Veh, 2 h, probe 1421529_PM_a_at",1.53
same,FC Osgin1 (oxidative stress induced growth inhibitor 1),"[2]; SPLEEN, 100MMF-vs-Veh, 2 h, probe 1424022_PM_at",1.83
same,FC Txnrd1 (thioredoxin reductase 1),"[2]; SPLEEN, 100MMF-vs-Veh, 2 h, probe 1424486_PM_a_at",2.14
same,FC Srxn1 (sulfiredoxin 1 homolog (S. cerevisiae)),"[2]; SPLEEN, 100MMF-vs-Veh, 2 h, probe 1426875_PM_s_at",1.92
same,FC 6330406I15Rik (RIKEN cDNA 6330406I15 gene),"[2]; SPLEEN, 100MMF-vs-Veh, 2 h, probe 1426937_PM_at",−1.58
same,FC Kirrel (kin of IRRE like (Drosophila)),"[2]; SPLEEN, 100MMF-vs-Veh, 2 h, probe 1434797_PM_at",−1.65
same,FC Armc8 (armadillo repeat containing 8),"[2]; SPLEEN, 100MMF-vs-Veh, 2 h, probe 1434951_PM_at",−1.54
same,FC 9130221J17Rik (RIKEN cDNA 9130221J17 gene),"[2]; SPLEEN, 100MMF-vs-Veh, 2 h, probe 1443159_PM_at",1.55
same,FC probe 1446490_PM_at (no gene named),"[2]; SPLEEN, 100MMF-vs-Veh, 2 h, probe 1446490_PM_at",−1.76
same,FC Srxn1 (sulfiredoxin 1 homolog (S. cerevisiae)),"[2]; SPLEEN, 100MMF-vs-Veh, 7 h, probe 1419942_PM_at",1.87
same,FC Srxn1 (sulfiredoxin 1 homolog (S. cerevisiae)),"[2]; SPLEEN, 100MMF-vs-Veh, 7 h, probe 1426875_PM_s_at",1.69
same,"Number of genes, DMF Only / MMF Only",[2]; Spleen,3
same,Aox1 (probe set 1419435_PM_at) differential expression,"[2]; spleen, 2 hr",2.35
same,Armc8 (probe set 1434951_PM_at) differential expression,"[2]; spleen, 2 hr",−1.54
same,Kirrel (probe set 1434797_PM_at) differential expression,"[2]; spleen, 2 hr",−1.65
same,Osgin1 (probe set 1424022_PM_at) differential expression,"[2]; spleen, 2 hr",1.83
same,Paip1 (probe set 1425521_PM_at) differential expression,"[2]; spleen, 2 hr",−1.56
same,Pdia4 (probe set 1416497_PM_at) differential expression,"[2]; spleen, 2 hr",−1.59
same,Rod1 (probe set 1424084_PM_at) differential expression,"[2]; spleen, 2 hr",−1.54
same,Srxn1 (probe set 1419942_PM_at) differential expression,"[2]; spleen, 2 hr",2.02
same,Txnrd1 (probe set 1424486_PM_a_at) differential expression,"[2]; spleen, 2 hr",2.14
same,Srxn1 (probe set 1419942_PM_at) differential expression,"[2]; spleen, 7 hr",1.87
same,Srxn1 mRNA fold change vs vehicle,"[2]; spleen, 2 hr after single 100 mg/kg oral dose",1.87
